The test system of one experiment is CD24 on normal B cells. The experiment is described as follows: CD24 flow cytometry analysis in primary B cells. The format is cell-based, human. Conditions: 20 μM bestatin or 10 μM tosedostat vs DMSO (FIG. 9A). How it is done: Flow Cytometry Analysis: For cell surface protein staining, 1×10^5-1×10^6 cells were first incubated with Fc receptor blocking solution, Human TruStain FcX™ (BioLegend, Cat #422301) for 10 minutes at room temperature. Cells were washed once in FACS buffer (1×PBS, 1.0% bovine serum albumin (BSA) (Sigma) and 0.2% sodium azide (Sigma), and then incubated with antibodies (given below) for 30 minutes at 4° C. in the dark. Cells were also stained with 7-AAD (Biolegend, Cat #420404) for dead cell exclusion, and flow cytometry analysis was performed using a Bio-Rad ZE5 Cell Analyzer. Following antibodies used in this study (all antibodies were used at 1:50 dilution unless otherwise noted): APC anti-human CD24 (BioLegend, Cat #311118, clone ML5), PE anti-human CD24 (eBioscience, Cat #12-0247-42, clone SN3), APC anti-human CD47 (BioLegend, Cat #323124, clone CC2C6), APC anti-human § 2-microglobulin (BioLegend, Cat #395711, clone A17082A), PE anti-human HLA-A2 (MHC-class I) (BioLegend, Cat #343305, clone BB7.2), APC anti-human CD11b (BioLegend, Cat #982604, clone ICRF44), APC anti-mouse F4/80 antibody (BioLegend, Cat #123116, clone BM8), APC-streptavidin (Thermo Fisher Scientific, Cat #SA1005, 1:100 dilution), PE anti-Calreticulin (Invitrogen, Catalog #MA5-15382, 1:200 dilution). […]
(Flow cytometry measures light scatter and fluorescence of single cells or particles in a stream.)

The test system of experiment [1] is CD24 cell surface expression in OVCAR8 cells. The experiment can be described thus: CD24 flow cytometry analysis in OVCAR8 cells. The format is cell-based, human. Conditions: for CD24 cell surface expression (MFI): OVCAR8, 3 days, bestatin 10 or 20 μM, tosedostat 5 or 10 μM, ARM1 1 or 2 μM, vs DMSO. Here is the method: Flow Cytometry Analysis: For cell surface protein staining, 1×10^5-1×10^6 cells were first incubated with Fc receptor blocking solution, Human TruStain FcXTM (BioLegend, Cat #422301) for 10 minutes at room temperature. Cells were washed once in FACS buffer (1×PBS, 1.0% bovine serum albumin (BSA) (Sigma) and 0.2% sodium azide (Sigma), and then incubated with antibodies (given below) for 30 minutes at 4° C. in the dark. Cells were also stained with 7-AAD (Biolegend, Cat #420404) for dead cell exclusion, and flow cytometry analysis was performed using a Bio-Rad ZE5 Cell Analyzer. Following antibodies used in this study (all antibodies were used at 1:50 dilution unless otherwise noted): APC anti-human CD24 (BioLegend, Cat #311118, clone ML5), PE anti-human CD24 (eBioscience, Cat #12-0247-42, clone SN3), APC anti-human CD47 (BioLegend, Cat #323124, clone CC2C6), APC anti-human § 2-microglobulin (BioLegend, Cat #395711, clone […]), PE anti-human HLA-A2 (MHC-class I) (BioLegend, Cat #343305, clone BB7.2), APC anti-human CD11b (BioLegend, Cat #982604, clone ICRF44), APC anti-mouse F4/80 antibody (BioLegend, Cat #123116, clone BM8), APC-streptavidin (Thermo Fisher Scientific, Cat #SA1005, 1:100 dilution), PE anti-Calreticulin (Invitrogen, Catalog #MA5-15382, 1:200 dilution). For intracellular staining, cells were fixed with 1% paraformaldehyde for 5 min and permeabilized using the True-Nuclear Transcription Factor Buffer Set (BioLegend, Cat #424401) before the addition of the antibody. Small Molecule Inhibitor and Drug Treatments: OVCAR8 or SKOV3 cells were treated for 3 days with bestatin (Ubenimex) (SelleckChem, Cat #S1591) at 5, 10 or 20 μM (as indicated in the figure legends), Tosedostat (Medchem Express, Cat #HY-14807) at 5 μM or 10 μM (as indicated in the figure legends) or ARM-1 (Medchem Express, Cat #HY-W027340) at 1, or 2 μM (as indicated in the figure legends). Inhibitors were replenished every 24 hours. DMSO (Sigma Aldrich, Cat #D8418) was used as a vehicle. OVCAR8 cells were treated with Docetaxel (SelleckChem, Cat #S1148) at 100 nM or Carboplatin (SelleckChem, Cat #S1215 at 100 nM or Doxorubicin (SelleckChem, Cat #E2516) at 50 nM for 12 hours.

SMILES strings stand for the structures.

Take `CC(C)C[C@H](NC(=O)[C@@H](O)[C@H](N)Cc1ccccc1)C(=O)O` [bestatin]: the “CD24 levels on B cells (MFI)” value in the experiment with CD24 on normal B cells is on record as “not diminished”. For the same compound, the “total CD24 levels following permeabilization of cells” value in experiment [1] (OVCAR8, 20 μM bestatin, permeabilized (FIG. 6E)) is “no significant effect”. In addition, the “CD24 cell surface expression (MFI)” value in experiment [1] was “reduced CD24 cell surface expression in a dose-dependent manner”. Besides, the “ability to decrease CD24 cell surface expression after knockdown of PEPT1 or PEPT2” value in experiment [1] (OVCAR8 expressing PEPT1 or PEPT2 shRNA, 20 μM bestatin (FIG. 7C)) was “abrogated”.
Consider `CC(C)C[C@@H](C(=O)N[C@H](C(=O)OC1CCCC1)c1ccccc1)[C@H](O)C(=O)NO` [tosedostat], for which the “CD24 levels on B cells (MFI)” value with CD24 on normal B cells was “not diminished”. Further, the “CD24 cell surface expression (MFI)” value in experiment [1] is “reduced”.

The record behind these values is patent US20260209777A1, “TARGETING GLYCOSYLPHOSPHATIDYLINOSITOL (GPI) PATHWAY PROTEINS TO TREAT OVARIAN CANCER” (UNIVERSITY OF MASSACHUSETTS, priority 2023, published 2026).
